Test results as given in the NIST ThermoML archive (doi:10.1021/je800110r).

Conditions: 333.15 K, Liquid, Vibrating tube method

CCCCCCCCCC [decane]
Conditions | mass density [kg/m3]
15536 kPa | 713.4
15558 kPa | 713.4
15603 kPa | 713.4
15623 kPa | 713.5
15641 kPa | 713.5
15666 kPa | 713.6
15680 kPa | 713.5
15703 kPa | 713.5
15721 kPa | 713.6
15741 kPa | 713.6
15761 kPa | 713.5
15784 kPa | 713.6
15804 kPa | 713.6
15827 kPa | 713.6
15859 kPa | 713.6
15877 kPa | 713.7
15898 kPa | 713.6
15919 kPa | 713.8
15945 kPa | 713.8
15972 kPa | 713.7
15992 kPa | 713.8
16013 kPa | 713.7
16043 kPa | 713.8
16061 kPa | 713.9
16084 kPa | 713.9
16108 kPa | 713.9
16129 kPa | 713.9
16147 kPa | 713.9
16163 kPa | 714.1
16188 kPa | 714
16212 kPa | 713.9
16236 kPa | 714
16258 kPa | 714.1
16288 kPa | 714.1
16313 kPa | 714
16336 kPa | 714
16354 kPa | 714
16383 kPa | 714.1
16417 kPa | 714
16436 kPa | 714.1
16455 kPa | 714.1
16484 kPa | 714.1
16506 kPa | 714.2
16535 kPa | 714.2
16557 kPa | 714.2
16580 kPa | 714.2
16599 kPa | 714.4
16628 kPa | 714.2
16648 kPa | 714.2
16681 kPa | 714.3
16700 kPa | 714.4
16719 kPa | 714.3
16749 kPa | 714.4
16769 kPa | 714.4
16806 kPa | 714.4
16832 kPa | 714.3
16858 kPa | 714.5
16882 kPa | 714.4
16913 kPa | 714.4
16933 kPa | 714.6
16963 kPa | 714.6
16983 kPa | 714.5
17007 kPa | 714.6
17030 kPa | 714.6
17054 kPa | 714.6
17071 kPa | 714.7
17105 kPa | 714.6
17136 kPa | 714.7
17168 kPa | 714.7
17193 kPa | 714.8
17217 kPa | 714.8
17252 kPa | 714.9
17276 kPa | 714.8
17301 kPa | 714.8
17329 kPa | 714.9
17357 kPa | 714.8
17382 kPa | 714.9
17407 kPa | 715
17429 kPa | 714.9
17458 kPa | 715
17484 kPa | 715
17509 kPa | 714.9
17542 kPa | 715.1
17564 kPa | 715
17593 kPa | 715.1
17626 kPa | 715.1
17656 kPa | 715.1
17689 kPa | 715.2
17708 kPa | 715.2
17727 kPa | 715.2
17754 kPa | 715.3
17777 kPa | 715.2
17799 kPa | 715.3
17827 kPa | 715.3
17857 kPa | 715.2
17891 kPa | 715.4
17925 kPa | 715.4
17948 kPa | 715.3
17975 kPa | 715.4
18002 kPa | 715.5
18025 kPa | 715.4
18053 kPa | 715.5
18089 kPa | 715.5
18117 kPa | 715.5
18145 kPa | 715.5
18164 kPa | 715.6
18188 kPa | 715.6
18223 kPa | 715.6
18263 kPa | 715.6
18286 kPa | 715.6
18322 kPa | 715.8
18354 kPa | 715.7
18382 kPa | 715.7
18419 kPa | 715.7
18443 kPa | 715.8
18476 kPa | 715.8
18500 kPa | 715.7
18540 kPa | 715.9
18566 kPa | 716
18594 kPa | 716
18623 kPa | 716
18664 kPa | 716
18744 kPa | 716
18765 kPa | 716
18791 kPa | 716.1
18859 kPa | 716.1
18889 kPa | 716.1
18927 kPa | 716.2
18953 kPa | 716.2
18982 kPa | 716.3
19017 kPa | 716.2
19048 kPa | 716.3
19083 kPa | 716.3
19113 kPa | 716.3
19140 kPa | 716.3
19180 kPa | 716.3
19216 kPa | 716.4
